This passage reports inhibition results from patent US7410963B2, “Benzo-1,4-diazepin-2-one derivatives as phosphodiesterase PDE2 inhibitors, preparation and therapeutic use thereof” (VIA Pharmaceuticals, Inc., priority 2003, dated 2008).

Like-named read-outs stand apart in the source and are kept apart here.

Broadly, the inhibition is the relative decrease from the control value, in per cent.

The test deals with T1, PDE2 (Bos taurus, UniProt P14099).
T1 sequence (P14099 1-921): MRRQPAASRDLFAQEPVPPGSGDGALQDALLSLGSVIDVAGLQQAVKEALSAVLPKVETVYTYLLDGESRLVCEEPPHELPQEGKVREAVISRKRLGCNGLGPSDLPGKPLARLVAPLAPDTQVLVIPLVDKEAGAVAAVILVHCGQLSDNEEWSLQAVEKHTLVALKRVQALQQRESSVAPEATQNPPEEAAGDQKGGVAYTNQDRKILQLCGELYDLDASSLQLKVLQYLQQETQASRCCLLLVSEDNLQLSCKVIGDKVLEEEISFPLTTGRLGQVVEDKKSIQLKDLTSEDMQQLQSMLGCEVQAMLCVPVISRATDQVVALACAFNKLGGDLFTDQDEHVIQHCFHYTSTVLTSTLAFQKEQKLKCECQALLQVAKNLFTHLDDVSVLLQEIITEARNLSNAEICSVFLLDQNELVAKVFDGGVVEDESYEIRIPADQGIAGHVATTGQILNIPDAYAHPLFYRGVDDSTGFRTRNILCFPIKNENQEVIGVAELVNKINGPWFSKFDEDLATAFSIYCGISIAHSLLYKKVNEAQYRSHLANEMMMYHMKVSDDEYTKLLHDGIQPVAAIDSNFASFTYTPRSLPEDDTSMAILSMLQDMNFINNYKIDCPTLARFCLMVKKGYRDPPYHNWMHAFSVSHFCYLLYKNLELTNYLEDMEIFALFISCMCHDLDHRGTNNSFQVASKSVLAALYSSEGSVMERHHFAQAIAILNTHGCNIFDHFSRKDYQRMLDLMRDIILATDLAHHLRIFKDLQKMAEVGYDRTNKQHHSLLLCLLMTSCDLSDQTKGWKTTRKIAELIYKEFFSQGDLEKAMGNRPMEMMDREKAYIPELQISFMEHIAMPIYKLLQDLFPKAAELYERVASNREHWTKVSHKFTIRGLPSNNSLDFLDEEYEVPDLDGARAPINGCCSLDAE
In words: Radioenzymatic phosphodiesterase assay: PDE2 inhibition. It counts as biochemical, bovine. The conditions noted are these: read-out: PDE2 percentage of inhibition at 10 μM. Here is the method: Nucleoside radioactivity was determined by liquid scintillation.

Consider `COc1ccc(-c2ccc3c(c2)C(c2cccc(C(N)=O)c2)=NCC(=O)N3C)cc1OC` [Example 54, 3-[7-(3,4-Dimethoxy-phenyl)-1-methyl-2-oxo-2,3-dihydro-1H-benzo[e][1,4]diazepin-5-yl]-benzamide], for which the inhibition at 10 µM was 94%.
Take `COc1ccccc1C1=NCC(=O)N(C)c2ccc(-c3ccccc3)cc21` [Example 51, 5-(2-Methoxy-phenyl)-1-methyl-7-phenyl-1,3-dihydro-benzo[e][1,4]diazepin-2-one]: for the setting “Table 1, 10 μM test compound”, the inhibition at 10 µM was 28%.
For the compound `COc1cc2c(cc1-c1ccccc1)C(c1cccc(CCCCc3ccccc3)c1)=NCC(=O)N2C` [Example 94, 8-Methoxy-1-methyl-7-phenyl-5-[3-(4-phenyl-butyl)-phenyl]-1,3-dihydro-benzo[e][1,4]diazepin-2-one], the inhibition at 10 µM was 79%.
Take `CN1C(=O)CN=C(c2cccc(C#N)c2)c2cc(-c3ccccc3)c(OC(F)(F)F)cc21` [Example 86, 3-(1-Methyl-2-oxo-7-phenyl-8-trifluoromethoxy-2,3-dihydro-1H-benzo[e][1,4]diazepin-5-yl)-benzonitrile]: the inhibition at 10 µM was 85%.
In the case of `COc1cc2c(cc1-c1ccccc1)C(c1cccc(Br)c1)=NCC(=O)N2C` [Example 62, 5-(3-Bromo-phenyl)-8-methoxy-1-methyl-7-phenyl-1,3-dihydro-benzo[e][1,4]diazepin-2-one], the inhibition at 10 µM (Table 1, 10 μM test compound) amounted to 98%.
`COc1cc2c(cc1-c1ccccc1)C(c1ccccc1Br)=NCC(=O)N2` [Example 102, 5-(2-Bromo-phenyl)-8-methoxy-7-phenyl-1,3-dihydro-benzo[e][1,4]diazepin-2-one]: the inhibition at 10 µM (Table 1, 10 μM test compound) was 48%.
Turning to `COc1ccc(C2=NCC(=O)N(C)c3ccc(-c4ccccc4)cc32)cc1OC` [Example 64, 5-(3,4-Dimethoxy-phenyl)-1-methyl-7-phenyl-1,3-dihydro-benzo[e][1,4]diazepin-2-one], under “Table 1, 10 μM test compound”, the inhibition at 10 µM came out at 79%.
On the same count and under the same terms, the result for `COc1cccc(OC)c1-c1ccc2c(c1)C(c1cccc(C#N)c1)=NCC(=O)N2C` [Example 16, 3-[7-(2,6-Dimethoxy-phenyl)-1-methyl-2-oxo-2,3-dihydro-1H-benzo[e][1,4]diazepin-5-yl]-benzonitrile] reads 100%.
Same read-out and setting: the result for `COc1cc2c(cc1-c1ccccc1Cl)C(c1cccc(C#N)c1)=NCC(=O)N2C` [Example 5, 3-[7-(2-Chloro-phenyl)-8-methoxy-1-methyl-2-oxo-2,3-dihydro-1H-benzo[e][1,4]diazepin-5-yl]-benzonitrile] reads 98%; that for `COCCCc1cccc(C2=NCC(=O)N(C)c3cc(OC)c(-c4ccccc4)cc32)c1` [Example 103, 8-Methoxy-5-[3-(3-methoxy-propyl)-phenyl]-1-methyl-7-phenyl-1,3-dihydro-benzo[e][1,4]diazepin-2-one], 96%; that for `COc1ccc(-c2ccc3c(c2)C(c2cccc(C(N)=O)c2)=NCC(=O)N3C)cc1` [Example 30, 3-[7-(4-methoxy-phenyl)-1-methyl-2-oxo-2,3-dihydro-1H-benzo[e][1,4]diazepin-5-yl]-benzamide], 95%.
Consider `CN1C(=O)CN=C(c2cccc(C(N)=O)c2)c2cc(-c3ccccc3)ccc21` [Example 27, 3-(1-methyl-2-oxo-7-phenyl-2,3-dihydro-1H-benzo[e][1,4]diazepin-5-yl)-benzamide], for which the inhibition at 10 µM is 96%.
For `CN1C(=O)CN=C(c2cccc(C(N)=O)c2)c2cc(-c3ccccc3)c(OC(F)(F)F)cc21` [Example 87, 3-(1-Methyl-2-oxo-7-phenyl-8-trifluoromethoxy-2,3-dihydro-1H-benzo[e][1,4]diazepin-5-yl)-benzamide], the inhibition at 10 µM (Table 1, 10 μM test compound) turned out to be 93%.
On the same count and under the same terms, the result for `COc1ccc(C2=NCC(=O)Nc3cc(OC)c(-c4ccccc4)cc32)cc1` [Example 76, 5-(4-Methoxy-phenyl)-8-methoxy-7-phenyl-1,3-dihydro-benzo[e][1,4]diazepin-2-one] reads 91%.
